Patent US9522881B2, “Hydroxyindole carboxylic acid based inhibitors for oncogenic Src homology-2 domain containing protein tyrosine phosphatase-2 (SHP2)” (Indiana University Research and Technology Corporation, priority 2013, dated 2016)

Target: SHP2 (Homo sapiens (Human), UniProt Q06124)
Test: SHP2-catalyzed hydrolysis of p-nitrophenyl phosphate (pNPP)
Type: biochemical
Details: for IC50: pNPP substrate, pH 7.0, 25° C.
Description: Libraries 11a-d were screened at ˜5 μM for SHP2 inhibitors without further purification. The ability of the library components to inhibit the SHP2-catalyzed hydrolysis of p-nitrophenyl phosphate (pNPP) was evaluated at pH 7.0 and 25° C. More particularly, the phosphatase activity of SHP2 was assayed using p-nitrophenyl phosphate (pNPP) as a substrate at 25° C. in 50 mM 3,3-dimethylglutarate buffer, pH 7.0, containing 1 mM EDTA with an ionic strength of […] adjusted by NaCl. The libraries were screened in a 96-well format at 5 μM compound concentration. […] The nonenzymatic hydrolysis of pNPP was corrected by measuring the control without the addition of enzyme. The amount of product p-nitrophenol was determined from the absorbance at 405 nm detected by a Spectra MAX340 microplate spectrophotometer (Molecular Devices, Sunnyvale, Calif.) using a molar extinction coefficient of 18,000 M^−1 cm^−1. […] IC50 values for selected resynthesized and purified hits were calculated by fitting the absorbance at 405 nm versus inhibitor concentration to the following equation: AI/A0=IC50/(IC50+[I]) where AI is the absorbance at 405 nm of the sample in the presence of the inhibitor; A0 is the absorbance at 405 nm in the absence of inhibitor; and [I] is the concentration of the inhibitor.

Structure (SMILES) | IC50 [nM] | SHP2 inhibition, in words | IC50 for SHP2, times higher than that of 11a-1
Cn1c(-c2cccc(NC(=O)CCC(=O)O)c2)c(I)c2cc(C(=O)O)c(O)cc21 [10c, 2-(3-(3-carboxypropanamido)phenyl)-6-hydroxy-3-iodo-1-methyl-1H-indole-5-carboxylic acid] | 56000 |  | 
Cn1c(-c2cccc(NC(=O)C(=O)Nc3ccc(-c4ccccc4)cc3)c2)c(I)c2cc(C(=O)O)c(O)cc21 [11a-2, 2-(3-(2-([1,1′-biphenyl]-4-ylamino)-2-oxoacetamido)phenyl)-6-hydroxy-3-iodo-1-methyl-1H-indole-5-carboxylic acid] | 620 ± 50 | strongly inhibited | 
Cn1c(-c2cccc(NC(=O)C(=O)Nc3ccc(OCc4ccccc4)c(Cl)c3)c2)c(I)c2cc(C(=O)O)c(O)cc21 [11a-3, 2-(3-(2-((4-(benzyloxy)-3-chlorophenyl)amino)-2-oxoacetamido)phenyl)-6-hydroxy-3-iodo-1-methyl-1H-indole-5-carboxylic acid] | 660 ± 30 | submicromolar | 
Cn1c(-c2cccc(NC(=O)C(=O)Nc3nc4ccc(Br)cc4s3)c2)c(I)c2cc(C(=O)O)c(O)cc21 [11a-4, 2-(3-(2-((6-bromobenzo[d]thiazol-2-yl)amino)-2-oxoacetamido)phenyl)-6-hydroxy-3-iodo-1-methyl-1H-indole-5-carboxylic acid] | 760 ± 110 |  | 
Cn1c(-c2cccc(NC(=O)C(=O)Nc3cccc(-c4ccccc4)c3)c2)c(I)c2cc(C(=O)O)c(O)cc21 [11a-5, 2-(3-(2-([1,1′-biphenyl]-3-ylamino)-2-oxoacetamido)phenyl)-6-hydroxy-3-iodo-1-methyl-1H-indole-5-carboxylic acid] | 770 ± 150 | strongly inhibited | 
Cn1c(-c2cccc(NC(=O)C(=O)Nc3cccc(OCc4ccccc4)c3)c2)c(I)c2cc(C(=O)O)c(O)cc21 [11a-6, 2-(3-(2-((3-(benzyloxy)phenyl)amino)-2-oxoacetamido)phenyl)-6-hydroxy-3-iodo-1-methyl-1H-indole-5-carboxylic acid] | 860 ± 140 | submicromolar | 
Cn1c(-c2cccc(NC(=O)C(=O)N3CCc4cc(Br)ccc43)c2)c(I)c2cc(C(=O)O)c(O)cc21 [11a-7, 2-(3-(2-(5-bromoindolin-1-yl)-2-oxoacetamido)phenyl)-6-hydroxy-3-iodo-1-methyl-1H-indole-5-carboxylic acid] | 1050 ± 90 |  | 
Cn1c(-c2cccc(NC(=O)C(=O)Nc3ccc(I)cc3)c2)c(I)c2cc(C(=O)O)c(O)cc21 [11a-8, 6-hydroxy-3-iodo-2-(3-(2-((4-iodophenyl)amino)-2-oxoacetamido)phenyl)-1-methyl-1H-indole-5-carboxylic acid] | 1200 ± 210 |  | 
Cn1c(-c2cccc(NC(=O)C(=O)Nc3ccccc3-c3nc4ccccc4[nH]3)c2)c(I)c2cc(C(=O)O)c(O)cc21 [11a-9, 2-(3-(2-((2-(1H-benzo[d]imidazol-2-yl)phenyl)amino)-2-oxoacetamido)phenyl)-6-hydroxy-3-iodo-1-methyl-1H-indole-5-carboxylic acid] | 1250 ± 60 |  | 
Cn1c(-c2cccc(NC(=O)C(=O)Nc3cccc(Cl)c3)c2)c(I)c2cc(C(=O)O)c(O)cc21 [11a-11, 2-(3-(2-((3-chlorophenyl)amino)-2-oxoacetamido)phenyl)-6-hydroxy-3-iodo-1-methyl-1H-indole-5-carboxylic acid] | 1460 ± 450 |  | 
Cn1c(-c2cccc(NC(=O)C(=O)Nc3ccc(-n4ccnc4)cc3)c2)c(I)c2cc(C(=O)O)c(O)cc21 [11a-12, 2-(3-(2-((4-(1H-imidazol-1-yl)phenyl)amino)-2-oxoacetamido)phenyl)-6-hydroxy-3-iodo-1-methyl-1H-indole-5-carboxylic acid] | 1490 ± 150 |  | 
Cn1c(-c2cccc(NC(=O)C(=O)Nc3ccc(Cl)c(C(F)(F)F)c3)c2)c(I)c2cc(C(=O)O)c(O)cc21 [11a-13, 2-(3-(2-((4-chloro-3-(trifluoromethyl)phenyl)amino)-2-oxoacetamido)phenyl)-6-hydroxy-3-iodo-1-methyl-1H-indole-5-carboxylic acid] | 1760 ± 80 |  | 
Cn1c(-c2cccc(NC(=O)C(=O)Nc3nnc(-c4ccccc4)s3)c2)c(I)c2cc(C(=O)O)c(O)cc21 [11a-14, 6-hydroxy-3-iodo-1-methyl-2-(3-(2-oxo-2-((5-phenyl-1,3,4-thiadiazol-2-yl)amino)acetamido)phenyl)-1H-indole-5-carboxylic acid] | 1790 ± 150 |  | 
Cn1c(-c2cccc(NC(=O)C(=O)Nc3ccc(F)cc3)c2)c(I)c2cc(C(=O)O)c(O)cc21 [11a-15, 2-(3-(2-((4-fluorophenyl)amino)-2-oxoacetamido)phenyl)-6-hydroxy-3-iodo-1-methyl-1H-indole-5-carboxylic acid] | 1840 ± 90 |  | 
Cn1c(-c2cccc(NC(=O)C(=O)Nc3nccs3)c2)c(I)c2cc(C(=O)O)c(O)cc21 [11a-16, 6-hydroxy-3-iodo-1-methyl-2-(3-(2-oxo-2-(thiazol-2-ylamino)acetamido)phenyl)-1H-indole-5-carboxylic acid] | 2310 ± 280 |  | 
Cn1c(-c2cccc(NC(=O)C(=O)Nc3cccc(OC(F)(F)F)c3)c2)c(I)c2cc(C(=O)O)c(O)cc21 [11a-17, 6-hydroxy-3-iodo-1-methyl-2-(3-(2-oxo-2-((3-(trifluoromethoxy)phenyl)amino)acetamido)phenyl)-1H-indole-5-carboxylic acid] | 2390 ± 150 |  | 

Results, then the molecule that gave them:

IC50 [nM] | SHP2 inhibition, in words | IC50 for SHP2, times higher than that of 11a-1 | Structure (SMILES)
2730 ± 550 |  |  | Cn1c(-c2cccc(NC(=O)C(=O)Nc3cccc(Br)c3)c2)c(I)c2cc(C(=O)O)c(O)cc21 [11a-18, 2-(3-(2-((3-bromophenyl)amino)-2-oxoacetamido)phenyl)-6-hydroxy-3-iodo-1-methyl-1H-indole-5-carboxylic acid]
4660 ± 500 |  |  | Cn1c(-c2cccc(NC(=O)C(=O)Nc3cccc(F)c3)c2)c(I)c2cc(C(=O)O)c(O)cc21 [11a-19, 2-(3-(2-((3-fluorophenyl)amino)-2-oxoacetamido)phenyl)-6-hydroxy-3-iodo-1-methyl-1H-indole-5-carboxylic acid]
5420 ± 1010 |  |  | Cn1c(-c2cccc(NC(=O)C(=O)Nc3cccc(I)c3)c2)c(I)c2cc(C(=O)O)c(O)cc21 [11a-20, 6-hydroxy-3-iodo-2-(3-(2-((3-iodophenyl)amino)-2-oxoacetamido)phenyl)-1-methyl-1H-indole-5-carboxylic acid]
220 ± 10 |  |  | Cn1c(-c2cccc(NC(=O)C(=O)Nc3ccc(-c4ccc(C#N)cc4)cc3)c2)c(I)c2cc(C(=O)O)c(O)cc21 [11a-21, 2-(3-(2-((4′-cyano-[1,1′-biphenyl]-4-yl)amino)-2-oxoacetamido)phenyl)-6-hydroxy-3-iodo-1-methyl-1H-indole-5-carboxylic acid]
310 ± 20 |  |  | Cn1c(-c2cccc(NC(=O)C(=O)Nc3ccc(-c4cccc(C#N)c4)cc3)c2)c(I)c2cc(C(=O)O)c(O)cc21 [11a-22, 2-(3-(2-((3′-cyano-[1,1′-biphenyl]-4-yl)amino)-2-oxoacetamido)phenyl)-6-hydroxy-3-iodo-1-methyl-1H-indole-5-carboxylic acid]
370 ± 10 |  |  | Cn1c(-c2cccc(NC(=O)C(=O)Nc3ccccc3-c3ccc(CO)o3)c2)c(I)c2cc(C(=O)O)c(O)cc21 [11a-23, 6-hydroxy-2-(3-(2-((2-(5-(hydroxymethyl)furan-2-yl)phenyl)amino)-2-oxoacetamido)phenyl)-3-iodo-1-methyl-1H-indole-5-carboxylic acid]
380 ± 10 |  |  | Cn1c(-c2cccc(NC(=O)C(=O)Nc3cccc(-c4ccco4)c3)c2)c(I)c2cc(C(=O)O)c(O)cc21 [11a-24, 2-(3-(2-((3-(furan-2-yl)phenyl)amino)-2-oxoacetamido)phenyl)-6-hydroxy-3-iodo-1-methyl-1H-indole-5-carboxylic acid]
420 ± 20 |  |  | Cn1c(-c2cccc(NC(=O)C(=O)Nc3cccc(-c4ccc(C#N)cc4)c3)c2)c(I)c2cc(C(=O)O)c(O)cc21 [11a-25, 2-(3-(2-((4′-cyano-[1,1′-biphenyl]-3-yl)amino)-2-oxoacetamido)phenyl)-6-hydroxy-3-iodo-1-methyl-1H-indole-5-carboxylic acid]
630 ± 40 |  |  | Cn1c(-c2cccc(NC(=O)C(=O)Nc3cccc(-c4ccsc4)c3)c2)c(I)c2cc(C(=O)O)c(O)cc21 [11a-26, 6-hydroxy-3-iodo-1-methyl-2-(3-(2-oxo-2-((3-(thiophen-3-yl)phenyl)amino)acetamido)phenyl)-1H-indole-5-carboxylic acid]
2300 |  | more than 10 times | Cn1c(-c2cccc(NC(=O)CCC(=O)Nc3ccc(-c4ccsc4)cc3)c2)c(I)c2cc(C(=O)O)c(O)cc21 [11c-1, 6-hydroxy-3-iodo-1-methyl-2-(3-(4-oxo-4-((4-(thiophen-3-yl)phenyl)amino)butanamido)phenyl)-1H-indole-5-carboxylic acid]
3600 ± 300 |  |  | Cn1c(-c2cccc(NC(=O)CCC(=O)Nc3ccc(Oc4ccccc4)cc3)c2)c(I)c2cc(C(=O)O)c(O)cc21 [11c-2, 6-hydroxy-3-iodo-1-methyl-2-(3-(4-oxo-4-((4-phenoxyphenyl)amino)butanamido)phenyl)-1H-indole-5-carboxylic acid]
5000 ± 900 |  |  | Cn1c(-c2cccc(NC(=O)CCC(=O)Nc3ccc(OCc4ccccc4)c(Cl)c3)c2)c(I)c2cc(C(=O)O)c(O)cc21 [11c-3, 2-(3-(4-((4-(benzyloxy)-3-chlorophenyl)amino)-4-oxobutanamido)phenyl)-6-hydroxy-3-iodo-1-methyl-1H-indole-5-carboxylic acid]
